Laboratory results reported in patent US20210290676A1, “IMPROVING THE EFFICACY AND SAFETY OF ADOPTIVE CELLULAR THERAPIES” (University of Southern California, priority 2018, published 2021).

Legend:
Assay type in all cases: cell-based, human
[1] = tested on: Pgp+ (DiOC2(3)-dye effluxing) T cells; test: DiOC2(3) dye efflux flow cytometry of inhibitor-treated T cells; conditions: treatment for 13 days, IL2 + CD3 and CD28 antibodies
Method: (§1) The use of P-glycoprotein (Pgp)-mediated efflux of DiOC2(3) to isolate stem like T cells for adoptive cellular therapy has been described in application no. […] In the following examples, DiOC2(3) staining was used to study the effect of different inhibitors on generation of stem like T cells.
(§2) DAY 0: Blood was obtained from unidentified donor. After RBC lysis, PBMC were collected using Ficoll-Hypaque separation. […] T cells were cultured in three different conditions: • 1. XVIVO 15 medium (Lonza) with IL2 50 IU/ml, CD3 antibody (30 ng/ml) and CD28 antibody (30 ng/ml). • 2. XVIVO 15 medium (Lonza) with CD3 antibody (30 ng/ml) and CD28 antibody (30 ng/ml). • 3. XVIVO 15 medium (Lonza) with IL2 50 IU/ml DAY 1: Cells were plated in a 6-well plate at a density of 1 million cells in 2 ml/of media (as described above) and treated with different inhibitors
(§3) The cell growth medium was changed in 6-well plates and fresh drugs were added at same concentration for one more week.
(§4) […] (DAY 11): Culture medium was changed and fresh drugs were added in 6-well plates.
(§5) Subsequently, cells were washed with RPMI medium and dye was effluxed at 37° C. for 90 min. Cells were washed with […], stained with CD62L-APC (5 μl/100 μl/sample) at 4° C. for 1 h, washed twice with PBS+1% FBS and analyzed on flow cytometer to check if these drugs treatment leads to increase in Pgp+/CD62L positive population.
(§6) Day 0: Blood was obtained from unidentified donor. After RBC lysis, PBMC were collected using Ficoll-Hypaque separation. 200 million T cells were isolated from PBMCs using CD3 microbeads. T cells were cultured overnight in XVIVO 15 medium (Lonza) with IL2 (50 IU/ml), 30 ng/ml of CD3 and CD28 antibodies
(§7) Day 1: Cells were plated in 24-well plates at a density of 0.3 million cells/ml in each well and treated with different drugs.
(§8) On day 7, culture medium was replaced with fresh medium with fresh drugs.
(§9) On day 13, culture medium was replaced with fresh medium and fresh drugs. Half of the cells were transferred to 6-well plates.
(§10) Day 14: An aliquot of cells with all the treatments listed above (for 13 days) was used to stain the cells with DiOC2(3) (60 ng/ml in RPMI medium) at 4° C. for 40 min, washed with RPMI medium, DiOC2(3) dye was effluxed at 37° C. for 90 min, washed with PBS+1% FBS, stained with CD62L-APC antibody. CD62L is a marker for resting T cells. (5 μl/100 μl/sample) at 4° C. for 1 h, washed twice with PBS+1% FBS and analyzed on flow cytometer to check if these drugs are affecting the dye-effluxing or Pgp+ (i.e., DiOC2(3)-dull) T-cell population.

[2] = tested on: CD8+CD45RA+CCR7+CD62L+ T cells; test: Flow cytometry for CD8, CD45RA, CCR7 and CD62L on inhibitor-treated T cells; conditions: cells cultured for 14 days
Method: as §2
(§11) A second aliquot of the cells cultured for 13 days with all the treatments listed above (1-21) was washed with PBS+1% FBS, stained with CD8-PerCP, CD45RA-FITC, CCR7-PE and CD62L-APC (5% Y/100 μl/sample for each of 4 antibodies) at 4° C. for 1 h, washed twice with PBS+100 FBS and analyzed on flow cytometer to check if these drugs are enriching T stem cells showing surface expression of CD8+CD45RA+CCR7+CD62L+.
as §6, §7, §8, §9
as §11, with “14” for “13”, “above” for “above (1-21)”, “(5 ul/100 ul/sample” for “(5% Y/100 μl/sample”, “PBS+1%” for “PBS+100”, “enriching for” for “enriching”, “T” for “T stem”

[3] = tested on: CD45RA+CCR7+CD62L+ T cells; test: Flow cytometry for CD45RA, CCR7 and CD62L on inhibitor-treated T cells (all T cells); conditions: cells cultured for 14 days
Method: as §2, §11, §6, §7, §8, §9
as §11, with “14” for “13”, “above” for “above (1-21)”, “(5 ul/100 ul/sample” for “(5% Y/100 μl/sample”, “PBS+1%” for “PBS+100”, “enriching for” for “enriching”, “T” for “T stem”

[4] = tested on: Pgp+ (DiOC2(3)-dye effluxing cells) and CD62L+ T cells; test: DiOC2(3) dye efflux plus CD62L-APC staining, flow cytometry of inhibitor-treated T cells; conditions: treatment for 13 days, IL2 + CD3 and CD28 antibodies
Method: as §1, §2, §3, §4, §5, §6, §7, §8, §9, §10

With COc1cc(-c2cn(C)c(=O)c3cnccc23)c(OC)cc1CN(C)C [B9564] as the compound, how does the “p2: pgp+ from Live cells” value ([1]; 100 nM) read?
The value was 13.39.

What about the “p2: pgp+ from Live cells” value ([1]; 500 nM) of the same compound?
The value was 15.56.

And the “GATE P4 CD8(PerCP)+, CD45RA(FITC)+, CCR7 (PE)+, CD62L(APC)” value (shortened to “GATE P4 CD8(PerCP)+, CD45RA(FITC)+, CCR7”) ([2]; 100 nM)?
Its value is 73.18%.

What about the “GATE P4 CD8(PerCP)+, CD45RA(FITC)+, CCR7” value ([2]; 500 nM) of the same compound?
The value was 83.31%.

And the “GATE P6 CD45RA(FITC)+, CCR7 (PE)+, CD62L(APC)” value (shortened to “GATE P6 CD45RA(FITC)+, CCR7”) ([3]; 100 nM)?
The value was 63.27%.

What about the “GATE P6 CD45RA(FITC)+, CCR7” value ([3]; 500 nM) of the same compound?
The value was 73.75%.

And the “p5: double +ve pgp+ and CD62L-APC+ from Live cells” value (from here on “p5: double +ve pgp+ and CD62L-APC+”) ([4]; 100 nM)?
Its value is 2.53.

And the “p5: double +ve pgp+ and CD62L-APC+” value ([4]; 500 nM)?
The value was 3.03.

For CCc1sc(N)nc1-c1ccc(OC)cc1 [CBFB], which “p2: pgp+ from Live cells” value ([1]; 500 nM) is on record?
Its value is 16.01.

What about the “p2: pgp+ from Live cells” value ([1]; 1 μM) of the same compound?
Its value is 20.93.

What about the “GATE P4 CD8(PerCP)+, CD45RA(FITC)+, CCR7” value ([2]; 500 nM) of the same compound?
The value was 74.77%.

And the “GATE P4 CD8(PerCP)+, CD45RA(FITC)+, CCR7” value ([2]; 1 μM)?
The value was 74.12%.

What about the “GATE P6 CD45RA(FITC)+, CCR7” value ([3]; 500 nM) of the same compound?
The value was 64.71%.

And the “GATE P6 CD45RA(FITC)+, CCR7” value ([3]; 1 μM)?
The value was 65.61%.

And the “p5: double +ve pgp+ and CD62L-APC+” value ([4]; 500 nM)?
The value was 2.85.

And the “p5: double +ve pgp+ and CD62L-APC+” value ([4]; 1 μM)?
The value was 3.56.

How did the “p2: pgp+ from Live cells” value ([1]; 100 nM) turn out when CCS(=O)(=O)N1CCC([C@@H](C)n2c(C)c(C(=O)NCc3c(OC)cc(C)[nH]c3=O)c3ccccc32)CC1 [CP1169] was run?
The value was 25.52.

And the “p2: pgp+ from Live cells” value ([1]; 200 nM)?
The value was 30.65.

And the “GATE P4 CD8(PerCP)+, CD45RA(FITC)+, CCR7” value ([2]; 100 nM)?
The value was 81.07%.

And the “GATE P4 CD8(PerCP)+, CD45RA(FITC)+, CCR7” value ([2]; 200 nM)?
The value was 75.83%.

What about the “GATE P6 CD45RA(FITC)+, CCR7” value ([3]; 100 nM) of the same compound?
Its value is 70.48%.

What about the “GATE P6 CD45RA(FITC)+, CCR7” value ([3]; 200 nM) of the same compound?
The value was 66.23%.

What about the “p5: double +ve pgp+ and CD62L-APC+” value ([4]; 100 nM) of the same compound?
The value was 4.68.

And the “p5: double +ve pgp+ and CD62L-APC+” value ([4]; 200 nM)?
Its value is 6.4.

Which “p2: pgp+ from Live cells” value ([1]; 100 nM) does the source give for COc1cc(C)[nH]c(=O)c1CNC(=O)c1c(C)n([C@H](C)C2CCOCC2)c2ccccc12 [CPI360] here?
The value was 25.15.

And the “p2: pgp+ from Live cells” value ([1]; 500 (unit not given))?
Its value is 35.55.

And the “GATE P4 CD8(PerCP)+, CD45RA(FITC)+, CCR7” value ([2]; 100 nM)?
Its value is 81.01%.

And the “GATE P4 CD8(PerCP)+, CD45RA(FITC)+, CCR7” value ([2]; 500 nM)?
The value was 81.26%.

And the “GATE P6 CD45RA(FITC)+, CCR7” value ([3]; 100 nM)?
The value was 70.85%.

And the “GATE P6 CD45RA(FITC)+, CCR7” value ([3]; 500 nM)?
The value was 69.62%.

And the “p5: double +ve pgp+ and CD62L-APC+” value ([4]; 100 nM)?
The value was 5.82.

What about the “p5: double +ve pgp+ and CD62L-APC+” value ([4]; 500 (unit not given)) of the same compound?
The value was 11.11.

How did the “p2: pgp+ from Live cells” value ([1]; 500 nM) turn out when CS(=O)(=O)c1ccc(-c2cnc(NCc3ccco3)n3cnnc23)cc1 [EED226] was run?
The value was 37.6.

What about the “p2: pgp+ from Live cells” value ([1]; 1 μM) of the same compound?
Its value is 43.53.

And the “GATE P4 CD8(PerCP)+, CD45RA(FITC)+, CCR7” value ([2]; 500 nM)?
The value was 70.21%.

What about the “GATE P4 CD8(PerCP)+, CD45RA(FITC)+, CCR7” value ([2]; 1 μM) of the same compound?
The value was 74.83%.

And the “GATE P6 CD45RA(FITC)+, CCR7” value ([3]; 500 nM)?
The value was 60.45%.

What about the “GATE P6 CD45RA(FITC)+, CCR7” value ([3]; 1 μM) of the same compound?
Its value is 60.45%.

And the “p5: double +ve pgp+ and CD62L-APC+” value ([4]; 500 nM)?
Its value is 10.41.

What about the “p5: double +ve pgp+ and CD62L-APC+” value ([4]; 1 μM) of the same compound?
The value was 11.82.

What does the source list for CCN(c1cc(C#CCN2CCOCC2)cc(C(=O)NCc2c(C)cc(C)[nH]c2=O)c1C)[C@H]1CC[C@H](N(C)CCOC)CC1 [EPZ011989]?
p2: pgp+ from Live cells ([1]; 500 nM): 64.39; p2: pgp+ from Live cells ([1]; 1 μM): 62.54; GATE P4 CD8(PerCP)+, CD45RA(FITC)+, CCR7 (PE)+, CD62L(APC) ([2]; 500 nM): 70.63%; GATE P4 CD8(PerCP)+, CD45RA(FITC)+, CCR7 (PE)+, CD62L(APC) ([2]; 1 μM): 72.83%; GATE P6 CD45RA(FITC)+, CCR7 (PE)+, CD62L(APC) ([3]; 500 nM): 57.62%; GATE P6 CD45RA(FITC)+, CCR7 (PE)+, CD62L(APC) ([3]; 1 μM): 58.31%; p5: double +ve pgp+ and CD62L-APC+ from Live cells ([4]; 500 nM): 18.77; p5: double +ve pgp+ and CD62L-APC+ from Live cells ([4]; 1 μM): 16.8

With CC[C@H](C)n1cc(C)c2c(C(=O)NCc3c(C)cc(C)[nH]c3=O)cc(-c3ccc(N4CCNCC4)nc3)cc21 [GSK126] as the compound, how does the “p2: pgp+ from Live cells” value ([1]; 100 nM) read?
The value was 36.37.

And the “p2: pgp+ from Live cells” value ([1]; 500 nM)?
Its value is 26.61.

What about the “GATE P4 CD8(PerCP)+, CD45RA(FITC)+, CCR7” value ([2]; 100 nM) of the same compound?
The value was 76.44%.

What about the “GATE P4 CD8(PerCP)+, CD45RA(FITC)+, CCR7” value ([2]; 500 nM) of the same compound?
Its value is 79.6%.

And the “GATE P6 CD45RA(FITC)+, CCR7” value ([3]; 100 nM)?
The value was 67.75%.

What about the “GATE P6 CD45RA(FITC)+, CCR7” value ([3]; 500 nM) of the same compound?
Its value is 67.65%.

What about the “p5: double +ve pgp+ and CD62L-APC+” value ([4]; 100 nM) of the same compound?
The value was 8.83.

And the “p5: double +ve pgp+ and CD62L-APC+” value ([4]; 500 nM)?
The value was 8.08.
